Where “and” joins values, the source holds several entries; their conditions need not be identical. Equal entries are not always repeated. Inconclusive results and toxic doses are left out. Peptide text beside a SMILES is read from it. * marks the point of attachment. Cbz = O=C(OCc1ccccc1)*
Test system: P388 leukemia ip, CD2F1 mice, survival T/C
Experiment: NCI In Vivo Anticancer Drug Screen. Data for tumor model P388 Leukemia (intraperitoneal) in CD2F1 (CDF1) mice
Conditions: endpoint: median survival time, higher = longer survival
Method in brief: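 Mice carrying the transplanted tumor received test compound or vehicle. Survival was recorded in each group, and the value is the treated-group measurement divided by that of the vehicle-treated control group.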

[1] = dose: 50.0 mg/kg/injection, schedule: Q01DX005 (ip), vehicle: saline with Tween-80
[2] = dose: 100.0 mg/kg/injection, schedule: Q01DX005 (ip), vehicle: saline with Tween-80
[3] = dose: 200.0 mg/kg/injection, schedule: Q01DX005 (ip), vehicle: saline with Tween-80
[4] = dose: 50.0 mg/kg/injection, schedule: Q01DX009 (ip), vehicle: saline with Tween-80
[5] = dose: 100.0 mg/kg/injection, schedule: Q01DX009 (ip), vehicle: saline with Tween-80
[6] = dose: 200.0 mg/kg/injection, schedule: Q01DX009 (ip), vehicle: saline with Tween-80

In the case of `CCN(CC)CCNc1cccc2c(C)cc(=O)[nH]c12`, the T/C [1] is reported as 103 % of control and the T/C [2] is reported as 101 % of control.
`c1ccc2cc(-c3cc(-c4cc(-c5ccc6ccccc6c5)on4)no3)ccc2c1` was tested, and the T/C (dose: 60.0 mg/kg/injection, schedule: Q01DX005 (ip), vehicle: Klucel + Tween-80) was 100 % of control, the T/C (dose: 120.0 mg/kg/injection, schedule: Q01DX005 (ip), vehicle: Klucel + Tween-80) was 95 % of control and the T/C (dose: 240.0 mg/kg/injection, schedule: Q01DX005 (ip), vehicle: Klucel + Tween-80) was 91 % of control.
With `CCN(CC)CC[n+]1ccc2c(C)c3[nH]c4ccc(O)cc4c3c(C)c2c1` the T/C (dose: 1.56 mg/kg/injection, schedule: Q04DX003 (ip), vehicle: saline) was 167 % of control, the T/C (dose: 1.56 mg/kg/injection, schedule: Q04DX003 (ip), vehicle: suspension in saline) was 155 % of control and the T/C (dose: 1.56 mg/kg/injection, schedule: Q04DX003 (ip), vehicle: water) was 156 % of control. For the same compound, the T/C (dose: 3.12 mg/kg/injection, schedule: Q04DX003 (ip), vehicle: saline) was 155 % of control, the T/C (dose: 3.12 mg/kg/injection, schedule: Q04DX003 (ip), vehicle: suspension in saline) was 169 % of control and the T/C (dose: 3.12 mg/kg/injection, schedule: Q04DX003 (ip), vehicle: water) was 161 % of control. For the same compound, the T/C (dose: 6.25 mg/kg/injection, schedule: Q04DX003 (ip), vehicle: saline) was 180 % of control and 213 % of control, the T/C (dose: 6.25 mg/kg/injection, schedule: Q04DX003 (ip), vehicle: suspension in saline) was 169 % of control and the T/C (dose: 6.25 mg/kg/injection, schedule: Q04DX003 (ip), vehicle: water) was 166 % of control. The T/C (dose: 12.5 mg/kg/injection, schedule: Q04DX003 (ip), vehicle: saline) was 174 % of control and 177 % of control, the T/C (dose: 12.5 mg/kg/injection, schedule: Q04DX003 (ip), vehicle: suspension in saline) was 226 % of control and the T/C (dose: 12.5 mg/kg/injection, schedule: Q04DX003 (ip), vehicle: water) was 181 % of control. For the same compound, the T/C (dose: 25.0 mg/kg/injection, schedule: Q04DX003 (ip), vehicle: saline) was 194 % of control and 210 % of control, the T/C (dose: 25.0 mg/kg/injection, schedule: Q04DX003 (ip), vehicle: suspension in saline) was 164 % of control and the T/C (dose: 50.0 mg/kg/injection, schedule: Q04DX003 (ip), vehicle: saline) was 178 % of control and 203 % of control. For the same compound, the T/C (dose: 50.0 mg/kg/injection, schedule: Q04DX003 (ip), vehicle: suspension in saline) was 180 % of control.
With `C[Si](C)(C)CSCCO` the T/C [1] was 106 % of control, the T/C [2] was 104 % of control and the T/C [3] was 100 % of control.
`CCN=C(c1ccc(NC(=O)c2ccc(C(=O)Nc3ccc(C(=NCC)N(CC)CC)cc3)cc2)cc1)N(CC)CC` was tested, and the T/C (dose: 0.39 mg/kg/injection, schedule: Q01DX005 (ip), vehicle: Klucel (hydroxypropylcellulose) (HPC)) was 102 % of control, the T/C (dose: 0.78 mg/kg/injection, schedule: Q01DX005 (ip), vehicle: Klucel (hydroxypropylcellulose) (HPC)) was 100 % of control and the T/C (dose: 1.56 mg/kg/injection, schedule: Q01DX005 (ip), vehicle: Klucel (hydroxypropylcellulose) (HPC)) was 101 % of control.
In the case of `Cc1[nH]c(=O)n(C(C)C)c(=O)c1Br`, the T/C (dose: 100.0 mg/kg/injection, schedule: Q01DX001 (ip), vehicle: saline sonified) is reported as 100 % of control, the T/C (dose: 200.0 mg/kg/injection, schedule: Q01DX001 (ip), vehicle: saline sonified) is reported as 100 % of control and the T/C (dose: 400.0 mg/kg/injection, schedule: Q01DX001 (ip), vehicle: saline sonified) is reported as 100 % of control.
`CC(=O)Nc1cn(C)cc1[N+](=O)[O-]` was tested, and the T/C [4] was 102 % of control, the T/C [5] was 103 % of control and the T/C [6] was 104 % of control.
For `O=C(O)CCSC(=S)NN1CCN(NC(=S)SCCC(=O)O)CC1`, the T/C (dose: 60.0 mg/kg/injection, schedule: Q01DX005 (ip), vehicle: Klucel (hydroxypropylcellulose) (HPC)) was 108 % of control, the T/C (dose: 120.0 mg/kg/injection, schedule: Q01DX005 (ip), vehicle: Klucel (hydroxypropylcellulose) (HPC)) was 100 % of control and the T/C (dose: 240.0 mg/kg/injection, schedule: Q01DX005 (ip), vehicle: Klucel (hydroxypropylcellulose) (HPC)) was 96 % of control.
In the case of `COc1cc(CC#N)c(S(=O)O)cc1OC`, the T/C [4] is reported as 116 % of control, the T/C [5] is reported as 109 % of control and the T/C [6] is reported as 114 % of control.
`CCc1c(OC)c(C#N)c2n(C)c3cc(C)c(C)cc3n2c1=O` was tested, and the T/C (dose: 60.0 mg/kg/injection, schedule: Q01DX005 (ip), vehicle: saline with Tween-80) was 87 % of control, the T/C (dose: 120.0 mg/kg/injection, schedule: Q01DX005 (ip), vehicle: saline with Tween-80) was 90 % of control and the T/C (dose: 240.0 mg/kg/injection, schedule: Q01DX005 (ip), vehicle: saline with Tween-80) was 93 % of control.
For `CSCCC(NC(=O)C(Cc1ccccc1)NC(=O)OCc1ccccc1)C(=O)O` (stereo not drawn) (Cbz-Phe-Met-OH; configuration not given here), the T/C [1] was 104 % of control, the T/C [2] was 105 % of control and the T/C [3] was 97 % of control.
`CC(=O)OCCS(CCOC(C)=O)=NS(=O)(=O)c1ccc(C)cc1` was tested, and the T/C (dose: 50.0 mg/kg/injection, schedule: Q01DX009 (ip), vehicle: saline) was 108 % of control, the T/C (dose: 100.0 mg/kg/injection, schedule: Q01DX009 (ip), vehicle: saline) was 108 % of control and the T/C (dose: 200.0 mg/kg/injection, schedule: Q01DX009 (ip), vehicle: saline) was 106 % of control.
For `C=C(C)C1CCC2(C1)C(C)=CCCC2C` (stereo unspecified), the T/C (dose: 12.5 mg/kg/injection, schedule: Q01DX005 (ip), vehicle: saline) was 107 % of control, the T/C (dose: 25.0 mg/kg/injection, schedule: Q01DX005 (ip), vehicle: saline) was 99 % of control and the T/C (dose: 50.0 mg/kg/injection, schedule: Q01DX005 (ip), vehicle: saline) was 108 % of control. The T/C (dose: 100.0 mg/kg/injection, schedule: Q01DX005 (ip), vehicle: saline) was 100 % of control and the T/C (dose: 200.0 mg/kg/injection, schedule: Q01DX005 (ip), vehicle: saline) was 99 % of control.
For `C=CCCn1ccnc1[N+](=O)[O-]`, the T/C (dose: 12.5 mg/kg/injection, schedule: Q01DX009 (ip), vehicle: water) was 94 % of control, the T/C (dose: 25.0 mg/kg/injection, schedule: Q01DX009 (ip), vehicle: water) was 93 % of control and the T/C (dose: 50.0 mg/kg/injection, schedule: Q01DX009 (ip), vehicle: water) was 100 % of control.
For `CC(C)(CO)NCC(O)CS(=O)(=O)O` (stereo unspecified), the T/C (dose: 60.0 mg/kg/injection, schedule: Q01DX005 (ip), vehicle: saline) was 100 % of control, the T/C (dose: 120.0 mg/kg/injection, schedule: Q01DX005 (ip), vehicle: saline) was 100 % of control and the T/C (dose: 240.0 mg/kg/injection, schedule: Q01DX005 (ip), vehicle: saline) was 101 % of control.
In the case of `Cc1cc(C)c(OC(=O)N(CCCl)N=O)c(C)c1`, the T/C (dose: 3.12 mg/kg/injection, schedule: Q01DX001 (ip), vehicle: saline with Tween-80) is reported as 111 % of control and the T/C (dose: 6.25 mg/kg/injection, schedule: Q01DX001 (ip), vehicle: saline with Tween-80) is reported as 116 % of control.
With `Cc1ccc(N/N=c2\c3nc4ccccc4nc2n(-c2ccccc2C)c(=S)n3-c2ccccn2)cc1` the T/C [1] was 100 % of control and the T/C [2] was 96 % of control.
In the case of `COc1cccc2c1C(=O)c1c(O)c3c(c(O)c1C2=O)C[C@@](O)(/C(C)=N/NC(=O)c1ccc(Cl)cc1)C[C@@H]3OC1CC(N)C(O)C(C)O1` (stereo partly specified), the T/C (dose: 0.12 mg/kg/injection, schedule: Q01DX009 (ip), vehicle: water) is reported as 110 % of control, the T/C (dose: 0.5 mg/kg/injection, schedule: Q01DX009 (ip), vehicle: water) is reported as 155 % of control and the T/C (dose: 1.0 mg/kg/injection, schedule: Q01DX009 (ip), vehicle: water) is reported as 180 % of control. The T/C (dose: 2.0 mg/kg/injection, schedule: Q01DX009 (ip), vehicle: water) was 161 % of control and 166 % of control, the T/C (dose: 4.0 mg/kg/injection, schedule: Q01DX009 (ip), vehicle: water) was 211 % of control and the T/C (dose: 5.0 mg/kg/injection, schedule: Q01DX001 (ip), vehicle: water) was 181 % of control. For the same compound, the T/C (dose: 8.0 mg/kg/injection, schedule: Q01DX009 (ip), vehicle: water) was 109 % of control, the T/C (dose: 10.0 mg/kg/injection, schedule: Q01DX001 (ip), vehicle: water) was 192 % of control and the T/C (dose: 20.0 mg/kg/injection, schedule: Q01DX001 (ip), vehicle: water) was 108 % of control.
For `CCCCN(c1ccc(Br)cc1)c1nc(N)nc(N)c1N=O`, the T/C (dose: 25.0 mg/kg/injection, schedule: Q01DX005 (ip), vehicle: Klucel (hydroxypropylcellulose) (HPC)) was 103 % of control, the T/C (dose: 50.0 mg/kg/injection, schedule: Q01DX005 (ip), vehicle: Klucel (hydroxypropylcellulose) (HPC)) was 99 % of control and the T/C (dose: 100.0 mg/kg/injection, schedule: Q01DX005 (ip), vehicle: Klucel (hydroxypropylcellulose) (HPC)) was 102 % of control. The T/C (dose: 200.0 mg/kg/injection, schedule: Q01DX005 (ip), vehicle: Klucel (hydroxypropylcellulose) (HPC)) was 98 % of control.
